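In this assay, cells in 96-well plates receive the compound at five concentrations for 48 hours. Endpoints are linearly interpolated between the surrounding concentrations. Abbreviation: GI50, concentration required for 50% inhibition of growth.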 Calls of active or inactive are those of the source. Cut-off read from the data, not from the text of the source: active = GI50 up to about 1.1 µM and inactive = higher.
How the values were obtained:
Assay in all cases: NCI anticancer screen, dose series, 48 h
OVCAR-3 = tested on: OVCAR-3
DU-145 = tested on: DU-145
SK-MEL-2 = tested on: SK-MEL-2
SK-MEL-28 = tested on: SK-MEL-28
MDA-MB-231 = tested on: MDA-MB-231
TK-10 = tested on: TK-10
ACHN = tested on: ACHN
OVCAR-5 = tested on: OVCAR-5
RPMI-8226 = tested on: RPMI-8226
786-0 = tested on: 786-0
Hs-578T = tested on: Hs-578T
MDA-N = tested on: MDA-N
Malme-3M = tested on: Malme-3M
KM12 = tested on: KM12
HCC 2998 = tested on: HCC 2998
EKVX = tested on: EKVX
NCI-H522 = tested on: NCI-H522
A549 = tested on: A549

SMILES	GI50 (OVCAR-3)	GI50 (DU-145)	GI50 (SK-MEL-2)	GI50 (SK-MEL-28)	GI50 (MDA-MB-231)	GI50 (TK-10)	GI50 (ACHN)	GI50 (OVCAR-5)	GI50 (RPMI-8226)	GI50 (786-0)	GI50 (Hs-578T)	GI50 (MDA-N)	GI50 (Malme-3M)	GI50 (KM12)	GI50 (HCC 2998)	GI50 (EKVX)	GI50 (NCI-H522)	GI50 (A549)
CCC/C(Cl)=N/OC(=O)Nc1cc(C(F)(F)F)ccc1OC	16.4 µM (inactive)	16.3 µM (inactive)	16.1 µM (inactive)	14.5 µM (inactive)	13.1 µM (inactive)	18.5 µM (inactive)	13.2 µM (inactive)	17.6 µM (inactive)	2.33 µM (inactive)	6.05 µM (inactive)	27.1 µM (inactive)	12.1 µM (inactive)	2.92 µM (inactive)	18.1 µM (inactive)	16.9 µM (inactive)	7.24 µM (inactive)	1.56 µM (inactive)	19.5 µM (inactive)
O=C(N[C@@H](Cc1ccccc1)B(O)O)[C@H](Cc1cccc2ccccc12)NC(=O)N1CCOCC1	0.000891 µM (active)	0.00627 µM (active)	0.00125 µM (active)	0.00106 µM (active)	0.00267 µM (active)	0.00566 µM (active)	0.0105 µM (active)	0.00281 µM (active)	0.000412 µM (active)	0.00451 µM (active)	0.00175 µM (active)	< 0.01 µM (active)	0.00187 µM (active)	0.00185 µM (active)	0.00182 µM (active)	0.0267 µM (active)	< 0.01 µM (active)	0.0262 µM (active)
[O-]/[N+](=C\c1ccccc1OC(=S)S)c1ccc(Cl)cc1	18.7 µM (inactive)	42.9 µM (inactive)	20 µM (inactive)	3.57 µM (inactive)	13.7 µM (inactive)	> 100 µM (inactive)	20.6 µM (inactive)	21.2 µM (inactive)	5.7 µM (inactive)	14.6 µM (inactive)	51.1 µM (inactive)	18 µM (inactive)	> 100 µM (inactive)	26.7 µM (inactive)	45.3 µM (inactive)	25.7 µM (inactive)	16.8 µM (inactive)	> 100 µM (inactive)
Cc1ccc2nnc(NS(=O)(=O)c3cc(C)c(Cl)cc3S)n2n1	> 100 µM (inactive)	> 100 µM (inactive)	> 100 µM (inactive)	> 100 µM (inactive)	> 100 µM (inactive)	> 100 µM (inactive)	> 100 µM (inactive)	> 100 µM (inactive)	> 100 µM (inactive)	> 100 µM (inactive)	> 100 µM (inactive)	> 100 µM (inactive)	> 100 µM (inactive)	> 100 µM (inactive)	> 100 µM (inactive)	> 100 µM (inactive)	> 100 µM (inactive)	> 100 µM (inactive)
C/C(Cc1ccc2c(c1)OCO2)=N\N=c1\sc2ccccc2n1C	> 100 µM (inactive)	> 100 µM (inactive)	> 100 µM (inactive)	> 100 µM (inactive)	> 100 µM (inactive)	> 100 µM (inactive)	> 100 µM (inactive)	> 100 µM (inactive)	65.9 µM (inactive)	> 100 µM (inactive)	> 100 µM (inactive)	83.2 µM (inactive)	> 100 µM (inactive)	> 100 µM (inactive)	> 100 µM (inactive)	24.8 µM (inactive)	> 100 µM (inactive)	> 100 µM (inactive)
Cc1cc2ncn(C3CCCO3)c2cc1C (configuration not stated)	> 100 µM (inactive)	> 100 µM (inactive)	> 100 µM (inactive)	> 100 µM (inactive)	> 100 µM (inactive)	> 100 µM (inactive)	> 100 µM (inactive)	> 100 µM (inactive)	> 100 µM (inactive)	> 100 µM (inactive)	> 100 µM (inactive)	> 100 µM (inactive)	> 100 µM (inactive)	74.5 µM (inactive)	> 100 µM (inactive)	> 100 µM (inactive)	12.1 µM (inactive)	> 100 µM (inactive)
CCCCCCCCCc1cc(O)c(O)cc1CCCCCCCCC	> 10 µM (inactive)	> 10 µM (inactive)	> 10 µM (inactive)	> 10 µM (inactive)	> 10 µM (inactive)	> 10 µM (inactive)	> 10 µM (inactive)	> 10 µM (inactive)	> 10 µM (inactive)	> 10 µM (inactive)	> 10 µM (inactive)	> 10 µM (inactive)	> 10 µM (inactive)	> 10 µM (inactive)	> 10 µM (inactive)	> 10 µM (inactive)	> 10 µM (inactive)	> 10 µM (inactive)
CC(=O)Oc1c(C)c2c(c3ccccc13)OC(C)(C)C2	22.5 µM (inactive)	17.3 µM (inactive)	18 µM (inactive)	18.8 µM (inactive)	23.9 µM (inactive)	18.6 µM (inactive)	17.3 µM (inactive)	19.5 µM (inactive)	15.7 µM (inactive)	15.3 µM (inactive)	21 µM (inactive)	12 µM (inactive)	16.3 µM (inactive)	14.5 µM (inactive)	16.5 µM (inactive)	19.8 µM (inactive)	18.4 µM (inactive)	18.1 µM (inactive)
O=C1CC(O)c2cscc21 (configuration not stated)	> 100 µM (inactive)	> 100 µM (inactive)	> 100 µM (inactive)	> 100 µM (inactive)	> 100 µM (inactive)	> 100 µM (inactive)	> 100 µM (inactive)	> 100 µM (inactive)	35.3 µM (inactive)	> 100 µM (inactive)	> 100 µM (inactive)	> 100 µM (inactive)	> 100 µM (inactive)	> 100 µM (inactive)	32.2 µM (inactive)	> 100 µM (inactive)	41.3 µM (inactive)	–
N#C[BH2-][n+]1cn(C2CC(OP(=O)(O)OCC3OC(n4ccc(N)nc4=O)CC3O)C(CO)O2)c2nc(N)[nH]c(=O)c21 (configuration not stated)	> 100 µM (inactive)	> 100 µM (inactive)	> 100 µM (inactive)	> 100 µM (inactive)	> 100 µM (inactive)	> 100 µM (inactive)	> 100 µM (inactive)	> 100 µM (inactive)	> 100 µM (inactive)	> 100 µM (inactive)	> 100 µM (inactive)	> 100 µM (inactive)	> 100 µM (inactive)	> 100 µM (inactive)	> 100 µM (inactive)	> 100 µM (inactive)	> 100 µM (inactive)	> 100 µM (inactive)
Cc1ccnc2nc(-c3ccc(F)cc3)cc(O)c12	67.6 µM (inactive)	> 69.5 µM (inactive)	57.3 µM (inactive)	77.3 µM (inactive)	> 80.7 µM (inactive)	> 97.3 µM (inactive)	68.1 µM (inactive)	> 100 µM (inactive)	35.3 µM (inactive)	42.2 µM (inactive)	72.4 µM (inactive)	3.51 µM (inactive)	92.7 µM (inactive)	7.23 µM (inactive)	60 µM (inactive)	79.6 µM (inactive)	9.04 µM (inactive)	54.2 µM (inactive)

Source: ChEMBL document CHEMBL1201862, “PubChem BioAssay data set” (2004)
